Entries after “also recorded” stand apart in the source; their conditions may differ.
What was measured:
[1] = tested on: transplanted human iGNs in acute cortical slices; test: Slice recording of sEPSCs from human iGNs transplanted into mouse cortex; assay type: cell-based; details: CNQX 50 μM; -70 mV voltage clamp
Method: P1 NSG pups were anesthetized on ice for 1-2 minutes before being secured with tape onto a prechilled ice block. Human iGNs were priorly labeled with RFP as described, and trypsinized to single cells at 8 dpt. Concentrated cell suspensions (˜2.5-5×10^4 cells/μl) were front loaded into a microliter syringe (26s gauge, Hamilton Company) and injected (200 nl, 250 nl/min) bilaterally to a depth of 0.2 mm near the centre of the anterior/posterior axis and 1 mm away from the midline.
After isofluorane anesthesia, brains were quickly cut out and 300-μm coronal slices were sectioned using vibrating microtome (VF-200 Microtome, Precisionary Instruments). Slices were incubated at 30° C. in artificial cerebrospinal fluid (ACSF) containing (in mM): 125 NaCl, 2.5 KCl, 1.25 NaH2PO4, 2 CaCl2, 1 MgCl2, 26 NaHCO3, and 10 glucose, saturated with 95% 02 and 5% CO2 at 30-32° C. for recovery for at least 1 hour. During recording, slices were kept in a recording chamber with continuous perfusion of ACSF. CNQX (50 μM, Tocris) was used to block sEPSC. Patch recordings were done by using IR-DIC visualization techniques with an Olympus BX51WI upright microscope with a ×60 water-immersion lens. Patch clamp recording method was same with that of recording in cultured cell.

mixed iENs/iGNs = test: Spontaneous PSC recording from iGNs in mixed iENs/iGNs co-culture; assay type: cell-based, human; details: 56 dpt, -70 mV; after bicuculline
Method: (§1) Whole cell patch clamp recordings were performed on iGNs and iENs with voltage or current clamp mode. Recording pipettes with resistances of 4-6 MΩ were filled with an internal solution containing (in mM): 120 K-gluconate, 9 KCl, 10 KOH, 3.48 MgCl2, 4 NaCl, 10 HEPES, 4 Na2ATP, 0.4 Na3GTP, 17.5 Sucrose, 0.5 EGTA with an osmolarity of 290 mOsm and pH 7.3. Neurons were bathed in the extracellular solution containing (in mM): 124 NaCl, 3 KCl, 1.3 NaH2PO4, 10 dextrose, 2 MgCl2, 2 CaCl2, 10 HEPES at pH 7.4. Bicuculline (20 μM, Tocris) and CNQX (50 μM, Tocris) were used to block inhibitory or excitatory synaptic responses, respectively. Neurons were held at −70 mV except otherwise indicated or at required currents using an Axon MultiClamp 700B amplifier (Axon Instruments). Signal was sampled at 40 kHz and filtered at 2 kHz (Digidata 1440A, Molecular Devices). Recordings with serial resistance higher than 20 MO or leaking current more than 200 pA were not analyzed. Data were analyzed offline using the ClampFit (Molecular Devices) or MiniAnalysis (Synaptosoft). […] The reversal potential for ions was −49 mV in our recording system, calculated using the simplified Nernst equation: E(Cl^−)=−59*log(extracellular[Cl^−]/intracellular[Cl^−]),(T=25° C.). Spontaneous action potentials were recorded at I=0 mode. […]

iENs = test: sEPSC recording from iENs; assay type: cell-based, human; details: CNQX 20 μM; 21 dpt
Method: as §1, with “Bicuculline (20 μM, Tocris) and CNQX (50 μM, Tocris) were used to block inhibitory or excitatory synaptic responses, respectively.” left out, “(Synaptosoft). Voltage clamp was used for recording I/V curve of Na/K current using a protocol of increasing holding potential 10 mV for each step from −80 mV.” for “(Synaptosoft).”

iGNs = test: Whole cell patch clamp of iGNs: GABA-evoked responses and spontaneous IPSCs; assay type: cell-based, human; details: 1 mM, 100 ms
Method: as §1, with “Neurons were held at −70 mV except otherwise indicated or at required currents using an Axon MultiClamp 700B amplifier (Axon Instruments). Signal was sampled at 40 kHz and filtered at 2 kHz (Digidata 1440A, Molecular Devices).” left out
For chemical GABA evoked IPSC recording, tip of glass pipettes filled with freshly made GABA (1 mM, Sigma) was put approximately 100 μm away from soma along dendrites of recorded neurons. […]

iGN expressing ChETA = assay type: cell-based, human

Question: Which results are given for N#Cc1cc2[nH]c(=O)c(=O)[nH]c2cc1[N+](=O)[O-] [CNQX]?
Answer: spontaneous EPSCs (sEPSCs) in transplanted iGNs, block [1]: abolished; also recorded: blocked; sEPSCs (fast-rise, fast-decay PSCs) in iGNs of mixed culture, block (mixed iENs/iGNs): completely abolished the remaining fast-rise, fast-decay PSCs; also recorded: blocked; sEPSCs in iENs, block (iENs): completely abolished sEPSCs

Question: For NCCCC(=O)O [GABA, gamma-aminobutyric acid], which “induction of IPSCs by exogenous application” value (iGNs) is on record?
Answer: The value was “triggered inhibitory postsynaptic currents”.

Question: With TTX as the compound, how does the “light-evoked inward currents, block” value (iGN expressing ChETA) read?
Answer: Its value is “could not block these light-evoked currents”.

From patent US20180072988A1, “GENERATION OF FUNCTIONAL CELLS FROM STEM CELLS” (priority 2015, published 2018)
